Reference: US10344019B2 (priority 2010, dated 2019)
Like-named read-outs stand apart in the source and are kept apart here.

Columns and labels:
Format in all cases: cell-based
[1] = system: HCV 1a RLuc cells (dicistronic genotype 1a H77 replicon, RLuc reporter); assay: microbe, parasite or virus in culture; details: read-out: 1a
Outline: (§1)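 Renilla luciferase HCV replicon cells: dicistronic 1b Con1, 1a H77 or 2a JFH-1 replicons, or a JFH-1 chimera carrying J6 NS5A (M31 present). Compound in DMSO serial dilutions, 72 h incubation, then lysis and luciferase read. EC50 by non-linear regression.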

[2] = system: HCV 1b RLuc cells (dicistronic genotype 1b Con1 replicon, RLuc reporter); assay: microbe, parasite or virus in culture
Outline: as §1

[3] = system: HCV 2a JFH-1 Rluc cells (dicistronic genotype 2a JFH-1 replicon, RLuc reporter); assay: microbe, parasite or virus in culture; details: read-out: 2a JFH
Outline: as §1

[4] = system: HCV 2b Rluc cells (NS5A chimeric genotype 2a JFH-1 replicon with genotype 2b MD2b-1 NS5A gene, M31 present); assay: microbe, parasite or virus in culture; details: Hepatitis C virus, read-out: 2b
Outline: (§2)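 Replicon cells stably carrying the listed RLuc-encoding dicistronic replicons were seeded and treated with DMSO serial dilutions of compound (10 mM stocks) diluted into culture medium. After 72 h, cells were lysed and Renilla luciferase activity measured. EC50 was derived by non-linear regression.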

[5] = system: HCV 3a RLuc cells (NS5A chimeric genotype 1b Con1 replicon with consensus genotype 3a NS5A gene); assay: microbe, parasite or virus in culture
Outline: as §2

[6] = system: HCV 4a Rluc cells (NS5A chimeric genotype 1b Con1 replicon with genotype 4a NS5A gene); assay: microbe, parasite or virus in culture; details: Hepatitis C virus, read-out: 4a
Outline: as §2

[7] = system: HCV 2a Rluc cells (NS5A chimeric genotype 2a JFH-1 replicon with genotype 2a J6 strain NS5A gene, M31 present); assay: HCV replicon reporter assay, genotype 2a J6 (M31 present); details: Hepatitis C virus, read-out: 2a J6
Outline: as §1

[8] = Hepatitis C virus, genotype 1a replicon
[9] = Hepatitis C virus, read-out: 1b (nM)
[10] = Hepatitis C virus, genotype 2a JFH-1 replicon
[11] = Hepatitis C virus, read-out: 3a, genotype 3a replicon
[12] = Hepatitis C virus, genotype 1a H77 RLuc replicon
[13] = Hepatitis C virus, genotype 2a JFH-1 RLuc replicon
[14] = Hepatitis C virus, read-out: 3a, genotype 3a NS5A chimeric replicon

Structure (SMILES) | EC50 [1, 8] [nM] | EC50 [2, 9] [nM] | EC50 [3, 10] [nM] | EC50 [4] [nM] | EC50 [5, 11] [nM] | EC50 [6] [nM] | EC50 [7] [nM] | further results
CC(C)C(=O)N[C@@H](C(=O)N1CCC[C@H]1c1ncc(-c2cc3c4c(c2)OCc2cc(-c5cnc([C@@H]6CCCN6C(=O)[C@H](NC(=O)C(C)C)c6ccccc6)[nH]5)cc(c2-4)OC3)[nH]1)c1ccccc1 [Example 468] | 0.001 to 0.999 | 0.113 | 0.001 to 0.999 | 0.001 to 0.999 | 0.001 to 0.99 | 0.001 to 0.99 | 0.001 to 0.999 | –
COC(=O)N[C@H](C(=O)N1CCC[C@H]1c1nc(Br)c(-c2cc3c4c(c2)OCc2cc(-c5[nH]c([C@@H]6CCCN6C(=O)[C@@H](NC(=O)OC)C(C)C)nc5Br)cc(c2-4)OC3)[nH]1)C(C)C [Example 473] | 0.001 to 0.999 | 0.015 | 0.001 to 0.999 | 1 to 44 | 0.001 to 0.99 | 0.001 to 0.99 | 1 to 44 | –
CC(C)CC(=O)N[C@@H](C(=O)N1CCC[C@H]1c1ncc(-c2cc3c4c(c2)OCc2cc(-c5cnc([C@@H]6CCCN6C(=O)[C@H](NC(=O)CC(C)C)c6ccccc6)[nH]5)cc(c2-4)OC3)[nH]1)c1ccccc1 [Example 481] | 0.001 to 0.999 | 0.058 | 0.001 to 0.999 | 0.001 to 0.999 | 0.001 to 0.99 | 0.001 to 0.99 | 0.001 to 0.999 | –
O=C(N[C@@H](C(=O)N1CCC[C@H]1c1ncc(-c2cc3c4c(c2)OCc2cc(-c5cnc([C@@H]6CCCN6C(=O)[C@H](NC(=O)c6ccncn6)c6ccccc6)[nH]5)cc(c2-4)OC3)[nH]1)c1ccccc1)c1ccncn1 [Example 491] | – | 0.066 | – | 0.001 to 0.999 | – | 0.001 to 0.99 | 0.001 to 0.999 | EC50 [1, 12]: 0.001 to 0.999 nM; EC50 [3, 13]: 0.001 to 0.999 nM; EC50 [5, 14]: 0.001 to 0.99 nM
COC(=O)N[C@H](C(=O)N1CCC[C@H]1c1nc2ccc3cc(-c4ccc5c(ccc6nc([C@@H]7CCCN7C(=O)[C@H](NCC(F)(F)F)c7ccccc7)[nH]c65)c4)ccc3c2[nH]1)C(C)C [Example 403] | 0.001 to 0.999 | 0.014 | 0.001 to 0.999 | 0.001 to 0.999 | 0.001 to 0.99 | 0.001 to 0.99 | 0.001 to 0.999 | –
COC[C@@H]1C[C@@H](c2nc3c([nH]2)-c2cc4c(cc2CC3)-c2ccc(-c3cnc([C@@H]5CCCN5C(=O)[C@@H](NC(=O)OC)C(C)C)[nH]3)cc2CO4)N(C(=O)[C@@H](NC(=O)OC)C(C)C)C1 [Example 493] | – | 0.03 | – | 0.001 to 0.999 | – | 0.001 to 0.99 | > 44 | EC50 [1, 12]: 0.001 to 0.999 nM; EC50 [3, 13]: 0.001 to 0.999 nM; EC50 [5, 14]: 0.001 to 0.99 nM
COC(=O)N[C@H](C(=O)N1CCC[C@H]1c1ncc(-c2ccc3cc(-c4ccc(-c5cnc([C@@H]6CC(F)(F)CN6C(=O)[C@H](NC(=O)OC)c6ccccc6)[nH]5)cc4)ccc3c2)[nH]1)C(C)C [Example 260] | – | 0.004 | – | > 44 | – | 0.001 to 0.99 | > 44 | EC50 ([1]; Hepatitis C virus, genotype 1a H77 replicon, RLuc reporter): 0.001 to 0.999 nM; EC50 ([3]; Hepatitis C virus, genotype 2a JFH-1 replicon, RLuc reporter): 0.001 to 0.999 nM; EC50 ([5]; Hepatitis C virus, read-out: 3a, genotype 3a NS5A chimeric 1b Con1 replicon): 0.001 to 0.99 nM
CC[C@H](C)[C@H](NC(=O)OC)C(=O)N1CCC[C@H]1c1nc2ccc3cc(-c4ccc5c(ccc6nc([C@@H]7C[C@H](COC)CN7C(=O)[C@H](NC(=O)C7CC7)c7ccccc7)[nH]c65)c4)ccc3c2[nH]1 [Example 511] | – | 0.019 | – | 0.001 to 0.999 | – | 0.001 to 0.99 | 0.001 to 0.999 | EC50 [1, 12]: 0.001 to 0.999 nM; EC50 [3, 13]: 0.001 to 0.999 nM; EC50 [5, 14]: 0.001 to 0.99 nM
COC(=O)N[C@H](C(=O)N1CCC[C@H]1c1ncc(-c2ccc3c4c(ccc3c2)-c2ccc(-c3cnc([C@@H]5CCCN5C(=O)[C@@H](NC(=O)OC)C5CCOCC5)[nH]3)cc2CO4)[nH]1)C(C)C [Example 8] | – | – | – | > 44 | – | 0.001 to 0.99 | > 44 | EC50 ([1]; Hepatitis C virus, 72 h, Table 1, genotype 1a H77 replicon, 72 hours): 0.001 to 0.999 nM; EC50 ([2]; Hepatitis C virus, 72 h, read-out: 1b (nM)): 0.006 nM; EC50 ([3]; Hepatitis C virus, 72 h, Table 1, genotype 2a JFH-1 replicon, 72 hours): 0.001 to 0.999 nM; EC50 ([5]; Hepatitis C virus, read-out: 3a, Table 1, genotype 3a NS5A chimeric replicon): 1 to 4.99 nM
CC(=O)N[C@@H](C(=O)N1CCC[C@H]1c1ncc(-c2cc3c4c(c2)OCc2cc(-c5cnc([C@@H]6CCCN6C(=O)[C@H](NC(C)=O)c6ccccc6)[nH]5)cc(c2-4)OC3)[nH]1)c1ccccc1 [Example 419] | 1 to 44 | 0.786 | 0.001 to 0.999 | 0.001 to 0.999 | 0.001 to 0.99 | 0.001 to 0.99 | 0.001 to 0.999 | –
COC(=O)N[C@H](C(=O)N1CC2(C[C@H]1c1nc3ccc4cc(-c5ccc(-c6cnc([C@@H]7CCCN7C(=O)[C@H](NC(=O)OC)c7ccccc7)[nH]6)cc5)ccc4c3[nH]1)OCCO2)C(C)C [Example 411] | 0.001 to 0.999 | 0.034 | 0.001 to 0.999 | 1 to 44 | 0.001 to 0.99 | 0.001 to 0.99 | 1 to 44 | –
COC(=O)N[C@H](C(=O)N1CC2(CC2)C[C@H]1c1nc2ccc3cc(-c4ccc(-c5cnc([C@@H]6[C@H]7CC[C@H](C7)N6C(=O)[C@@H](NC(=O)OC)C(C)C)[nH]5)cc4)ccc3c2[nH]1)C(C)C [Example 387] | 0.001 to 0.999 | 0.009 | 0.001 to 0.999 | > 44 | 0.001 to 0.99 | 0.001 to 0.99 | > 44 | –
CNC(=O)N[C@@H](C(=O)N1CCC[C@H]1c1ncc(-c2cc3c4c(c2)OCc2cc(-c5cnc([C@@H]6CCCN6C(=O)[C@H](NC(=O)NC)c6ccccc6)[nH]5)cc(c2-4)OC3)[nH]1)c1ccccc1 [Example 447] | 1 to 44 | 2.05 | 0.001 to 0.999 | 0.001 to 0.999 | 0.001 to 0.99 | 0.001 to 0.99 | 0.001 to 0.999 | –
CN(C)C(=O)N[C@@H](C(=O)N1CCC[C@H]1c1ncc(-c2cc3c4c(c2)OCc2cc(-c5cnc([C@@H]6CCCN6C(=O)[C@H](NC(=O)N(C)C)c6ccccc6)[nH]5)cc(c2-4)OC3)[nH]1)c1ccccc1 [Example 431] | 0.001 to 0.999 | 0.436 | 0.001 to 0.999 | 0.001 to 0.999 | 0.001 to 0.99 | 0.001 to 0.99 | 0.001 to 0.999 | –
O=C(C(c1ccccc1)N1CCCOCC1)N1CCC[C@H]1c1ncc(-c2cc3c4c(c2)OCc2cc(-c5cnc([C@@H]6CCCN6C(=O)C(c6ccccc6)N6CCCOCC6)[nH]5)cc(c2-4)OC3)[nH]1 (stereo partly shown) [Example 445] | 1 to 44 | 0.336 | 0.001 to 0.999 | 1 to 44 | 0.001 to 0.99 | 0.001 to 0.99 | 1 to 44 | –
COC(=O)N[C@H](C(=O)N1CCC[C@H]1c1ncc(-c2ccc3cc(-c4ccc(-c5cnc([C@@H]6CCCN6C(=O)[C@H](NC(=O)OC)c6ccccc6)[nH]5)cc4)ccc3c2)[nH]1)C(C)C [Example 26] | – | – | – | 1 to 44 | – | 0.001 to 0.99 | 1 to 44 | EC50 ([1]; Table 2, genotype 1a H77 replicon, 72 hours): 0.001 to 0.999 nM; EC50 ([2]; read-out: 1b): 0.012 nM; EC50 ([3]; Table 2, genotype 2a JFH-1 replicon, 72 hours): 0.001 to 0.999 nM; EC50 ([5]; read-out: 3a, Table 2, genotype 3a NS5A chimeric replicon): 0.001 to 0.99 nM
